According to US9284307B2, “Macrocyclic serine protease inhibitors” (Idenix Pharmaceuticals LLC, priority 2009, dated 2016):

Assays:
[1] = system: HCV genotype 1a H77 strain subgenomic luciferase replicon (H1a-luc) in Huh-7 cells; test: Luciferase replicon assay, genotype 1a (H1a-luc); type: cell-based; details: Hepatitis C virus, Huh-7, 72 h, read-out: EC50 Against Relpicon 1a
Description: (§1) The HCV luciferase replicon assay measures the ability of a test compound to inhibit HCV replication in cell culture after 3 days of treatment in a human hepatoma cell line (Huh-7) bearing a HCV replicon containing a luciferase-neomycin phosphotransferase fusion gene. The inhibition of HCV replication was measured by quantification of luciferase protein expression. Briefly, Huh-7 cells containing either the HCV genotype 1a H77 strain or genotype 1b Con1 strain subgenomic luciferase replicon (H1a-luc or Zluc, respectively) were grown in DMEM containing glucose, L-glutamine and sodium pyruvate, 10% fetal bovine serum (FBS), 100 IU/mL penicillin, 100 μg/mL streptomycin, 2 mM GlutaMAX, non-essential amino acids and 0.25 (H1a-luc) or 0.5 (Zluc) mg/mL G418. GlutaMAX was obtained from Invitrogen. Corp.; all other media reagents were obtained from Mediatech, Inc. For dose-response testing, the cells were seeded in 96-well plates at 1×10^4 (H1a-luc) or 7.5×10^3 (Zluc) cells/well in a volume of 50 μL, and incubated at 37° C./5% CO2. […] The assay plates were shaken for 3 minutes at room temperature and luciferase activity for each well was measured with a 1 sec read time on the Victor^3V multilabel counter using a 700 nm cut-off filter (Perkin Elmer). EC50 values were calculated from dose response curves from the resulting best-fit equations determined by Microsoft Excel and XLfit 4.1 software.

[2] = system: HCV genotype 1b Con1 strain subgenomic luciferase replicon (Zluc) in Huh-7 cells; test: Luciferase replicon assay, genotype 1b (Zluc); type: cell-based; details: Hepatitis C virus, genotype 1b Con1 luciferase replicon (Zluc), 72 hours, read-out: EC50 Against Relpicon 1b
Description: as §1

[3] = Cytotoxicity evaluation (Cell Titer 96 AQueous One), Table 2; type: cell-based; details: human; cellular viability; cell line not given
Description: For cytotoxicity evaluation, H1a-luc or Zluc cells were treated with compounds as described above and cellular viability was monitored using the Cell Titer 96 AQueous One Solution Cell Proliferation Assay (Promega). Plates were then read at 490 nm in a Victor^3V 1420 multilabel counter (Perkin Elmer) and CC50 concentrations were determined using Microsoft Excel and XLfit 4.1 software.

CYP1A2 = biological target: T1, CYP1A2 (Homo sapiens, UniProt P05177); test: In vitro CYP450 inhibition screen, fluorogenic assay, CYP1A2; type: in vitro ADME; details: probe substrate 3-Cyano-7-Ethoxycoumarin; average of two independent experiments
T1 construct: purchased BD Bioscience 459500
T1 sequence (P05177 whole entry): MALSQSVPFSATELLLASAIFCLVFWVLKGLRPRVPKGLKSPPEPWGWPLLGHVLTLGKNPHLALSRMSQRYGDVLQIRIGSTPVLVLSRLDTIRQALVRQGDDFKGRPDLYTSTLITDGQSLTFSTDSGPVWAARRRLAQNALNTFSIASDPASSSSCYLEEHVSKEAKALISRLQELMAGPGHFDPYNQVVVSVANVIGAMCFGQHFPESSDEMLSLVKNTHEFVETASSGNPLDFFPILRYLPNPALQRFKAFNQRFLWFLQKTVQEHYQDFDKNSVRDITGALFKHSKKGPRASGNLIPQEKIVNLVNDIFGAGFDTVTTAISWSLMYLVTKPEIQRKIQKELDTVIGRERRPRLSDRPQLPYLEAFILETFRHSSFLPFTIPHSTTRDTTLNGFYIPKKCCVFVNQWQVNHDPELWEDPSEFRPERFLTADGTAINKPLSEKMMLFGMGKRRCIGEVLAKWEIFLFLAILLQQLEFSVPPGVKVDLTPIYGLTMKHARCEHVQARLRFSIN
Description: (§2) CYP1A2 (BD Bioscience Cat #459500), CYP2B6 (BD Bioscience cat #459220), and CYP3A4 (BD Bioscience Cat #459100) inhibition fluorogenic assays were performed according to the manufacturer's protocol. Test articles were prepared as 10 mM stock solutions in DMSO.
(§3) Data represent the average of two independent experiments. A represents inhibition of 5 to 10%. B represents inhibition of >10% to 20%. C represents inhibition of >20% to 30%. D represents inhibition of >30% to 40%. I represents an IC50 of 5 to 9 μM.

CYP2B6 = biological target: T2, CYP2B6 (Homo sapiens, UniProt P20813); test: In vitro CYP450 inhibition screen, fluorogenic assay, CYP2B6; type: in vitro ADME; details: probe substrate 7-Ethoxy-4-trifluoromethylcoumarin, average of two independent experiments
T2 construct: purchased BD Bioscience 459220
T2 sequence (P20813 whole entry): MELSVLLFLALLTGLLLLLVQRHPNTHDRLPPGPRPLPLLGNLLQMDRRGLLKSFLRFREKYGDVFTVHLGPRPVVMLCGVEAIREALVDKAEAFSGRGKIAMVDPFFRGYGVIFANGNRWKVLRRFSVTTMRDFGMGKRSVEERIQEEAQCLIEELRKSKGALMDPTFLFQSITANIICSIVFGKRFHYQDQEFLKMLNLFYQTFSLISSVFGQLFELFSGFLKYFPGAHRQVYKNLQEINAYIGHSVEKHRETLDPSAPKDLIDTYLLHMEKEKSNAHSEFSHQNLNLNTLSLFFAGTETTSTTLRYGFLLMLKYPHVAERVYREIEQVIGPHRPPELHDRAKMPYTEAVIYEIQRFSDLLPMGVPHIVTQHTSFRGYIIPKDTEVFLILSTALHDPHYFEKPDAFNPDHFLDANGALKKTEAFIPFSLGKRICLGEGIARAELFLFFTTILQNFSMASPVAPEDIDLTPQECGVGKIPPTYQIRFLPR
Description: as §2, §3

CYP2C8 = biological target: T3, CYP2C8 (Homo sapiens, UniProt P10632); test: In vitro CYP450 inhibition screen, luminogenic assay, CYP2C8; type: in vitro ADME; details: probe substrate Luciferin-ME, average of two independent experiments
T3 construct: purchased BD Bioscience
T3 sequence (P10632 whole entry): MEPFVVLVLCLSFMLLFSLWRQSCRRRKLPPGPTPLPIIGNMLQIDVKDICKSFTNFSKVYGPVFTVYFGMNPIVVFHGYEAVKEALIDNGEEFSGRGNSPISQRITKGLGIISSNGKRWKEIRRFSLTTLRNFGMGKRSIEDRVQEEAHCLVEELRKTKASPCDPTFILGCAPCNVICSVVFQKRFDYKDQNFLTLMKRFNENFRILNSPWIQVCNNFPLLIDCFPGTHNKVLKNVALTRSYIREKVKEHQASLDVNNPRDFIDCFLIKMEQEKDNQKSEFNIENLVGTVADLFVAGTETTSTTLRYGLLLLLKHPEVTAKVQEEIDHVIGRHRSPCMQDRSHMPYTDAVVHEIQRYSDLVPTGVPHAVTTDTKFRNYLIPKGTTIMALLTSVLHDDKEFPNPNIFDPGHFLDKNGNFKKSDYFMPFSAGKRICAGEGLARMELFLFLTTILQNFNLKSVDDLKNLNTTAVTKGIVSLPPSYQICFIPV
Description: (§4) CYP2C8, 2C9, 2C19 and 2D6 (BD Bioscience) inhibition luminogenic assay was performed as per the protocol provided by Promega (P450-Glo™ Assay Technical Bulletin #TB325, P450-Glo™ Screening Systems Technical Bulletin #TB340). Test articles were prepared as 10 mM stock solutions in DMSO.
as §3

CYP2C9 = biological target: T4, CYP2C9 (Homo sapiens, UniProt P11712); test: In vitro CYP450 inhibition screen, luminogenic assay, CYP2C9; type: in vitro ADME; details: CYP2C9 enzyme (BD Bioscience), probe substrate Luciferin-H, average of two independent experiments, read-out: IC50 (μM) or % Inhibition at 20 μM, CYP450 2C9
T4 construct: purchased BD Bioscience
T4 sequence (P11712 whole entry): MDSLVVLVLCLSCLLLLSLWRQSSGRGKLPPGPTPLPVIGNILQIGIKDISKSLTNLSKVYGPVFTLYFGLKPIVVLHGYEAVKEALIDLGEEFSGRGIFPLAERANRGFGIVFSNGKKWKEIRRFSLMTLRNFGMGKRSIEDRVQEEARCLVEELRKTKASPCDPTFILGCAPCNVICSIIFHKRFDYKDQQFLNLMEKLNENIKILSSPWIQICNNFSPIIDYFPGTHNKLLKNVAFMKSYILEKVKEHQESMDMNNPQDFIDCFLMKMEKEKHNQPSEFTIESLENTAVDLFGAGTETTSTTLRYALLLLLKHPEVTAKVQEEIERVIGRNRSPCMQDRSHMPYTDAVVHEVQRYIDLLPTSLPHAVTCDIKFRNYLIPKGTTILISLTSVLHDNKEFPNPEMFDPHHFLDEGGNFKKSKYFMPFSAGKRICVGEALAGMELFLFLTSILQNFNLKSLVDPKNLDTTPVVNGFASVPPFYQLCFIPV
Description: as §4, §3

CYP2C19 = biological target: T5, CYP2C19 (Homo sapiens, UniProt P33261); test: In vitro CYP450 inhibition screen, luminogenic assay, CYP2C19; type: in vitro ADME; details: probe substrate Luciferin-H EGE, average of two independent experiments, read-out: IC50 (μM) or % Inhibition at 20 μM, CYP450 2C19
T5 construct: purchased BD Bioscience
T5 sequence (P33261 whole entry): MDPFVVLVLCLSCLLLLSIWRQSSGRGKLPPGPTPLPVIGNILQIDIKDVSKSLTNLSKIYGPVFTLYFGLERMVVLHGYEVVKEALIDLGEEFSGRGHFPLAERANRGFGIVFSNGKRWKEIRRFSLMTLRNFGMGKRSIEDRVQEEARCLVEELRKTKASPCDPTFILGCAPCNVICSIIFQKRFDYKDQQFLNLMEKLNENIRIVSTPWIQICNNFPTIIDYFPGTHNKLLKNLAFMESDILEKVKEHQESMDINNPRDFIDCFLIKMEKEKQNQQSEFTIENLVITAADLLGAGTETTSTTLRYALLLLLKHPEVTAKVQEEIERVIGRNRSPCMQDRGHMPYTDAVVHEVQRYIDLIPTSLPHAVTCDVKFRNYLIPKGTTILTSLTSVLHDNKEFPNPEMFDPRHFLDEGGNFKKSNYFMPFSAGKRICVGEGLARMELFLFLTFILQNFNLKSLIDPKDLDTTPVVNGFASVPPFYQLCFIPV
Description: as §4, §3

CYP2D6 = biological target: T6, CYP2D6 (Homo sapiens, UniProt P10635); test: In vitro CYP450 inhibition screen, luminogenic assay, CYP2D6; type: in vitro ADME; details: CYP2D6 enzyme (BD Bioscience), probe substrate Luciferin-ME EGE, average of two independent experiments, read-out: IC50 (μM) or % Inhibition at 20 μM, CYP450 2D6
T6 construct: purchased BD Bioscience
T6 sequence (P10635 whole entry): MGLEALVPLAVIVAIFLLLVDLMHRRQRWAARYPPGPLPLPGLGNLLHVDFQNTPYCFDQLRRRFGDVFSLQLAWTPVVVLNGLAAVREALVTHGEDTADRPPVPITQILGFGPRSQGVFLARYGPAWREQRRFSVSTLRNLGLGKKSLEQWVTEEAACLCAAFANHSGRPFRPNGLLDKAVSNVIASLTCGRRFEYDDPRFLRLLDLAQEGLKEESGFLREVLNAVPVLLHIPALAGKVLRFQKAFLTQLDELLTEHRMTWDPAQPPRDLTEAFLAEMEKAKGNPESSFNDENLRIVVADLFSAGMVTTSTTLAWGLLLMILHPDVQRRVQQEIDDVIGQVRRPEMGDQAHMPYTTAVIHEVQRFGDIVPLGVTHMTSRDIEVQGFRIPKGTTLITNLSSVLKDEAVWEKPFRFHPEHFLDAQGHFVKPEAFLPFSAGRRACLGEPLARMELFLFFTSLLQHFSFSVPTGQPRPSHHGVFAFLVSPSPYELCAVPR
Description: as §4, §3

CYP3A4 = biological target: T7, CYP3A4 (Homo sapiens, UniProt P08684); test: In vitro CYP450 inhibition screen, fluorogenic assay, CYP3A4; type: in vitro ADME; details: probe substrate 7-Benzyloxy-trifluoromethylcoumarin, average of two independent experiments, read-out: IC50 (μM) or % Inhibition at 20 μM, CYP450 3A4
T7 construct: purchased BD Bioscience 459100
T7 sequence (P08684 whole entry): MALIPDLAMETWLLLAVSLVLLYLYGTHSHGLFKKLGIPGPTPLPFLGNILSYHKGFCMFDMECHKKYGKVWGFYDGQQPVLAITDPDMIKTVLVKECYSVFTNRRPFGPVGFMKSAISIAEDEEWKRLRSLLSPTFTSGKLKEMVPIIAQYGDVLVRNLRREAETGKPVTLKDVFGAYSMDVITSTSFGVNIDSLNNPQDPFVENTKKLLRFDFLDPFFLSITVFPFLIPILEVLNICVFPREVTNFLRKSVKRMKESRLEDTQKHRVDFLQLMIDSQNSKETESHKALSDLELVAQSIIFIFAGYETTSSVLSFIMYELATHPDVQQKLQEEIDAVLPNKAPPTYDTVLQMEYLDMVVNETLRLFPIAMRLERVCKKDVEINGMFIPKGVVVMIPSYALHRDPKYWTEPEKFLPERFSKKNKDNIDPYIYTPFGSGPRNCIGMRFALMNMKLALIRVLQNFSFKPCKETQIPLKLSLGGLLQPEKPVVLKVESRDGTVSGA
Description: as §2, §3

Structure (SMILES) | EC50 [1] | EC50 [2] | CC50 at 72 h [3] | IC50 (μM) or % Inhibition at 20 μM, CYP450 1A2 (CYP1A2) | inhibition at 20 µM (CYP2B6; human, CYP2B6 enzyme (BD Bioscience cat #459220), probe 7-Ethoxy-4-trifluoromethylcoumarin, read-out: IC50 (μM) or % Inhibition at 20 μM, CYP450 2B6) | IC50 (μM) or % Inhibition at 20 μM, CYP450 2C8 (CYP2C8) | inhibition at 20 µM (CYP2C9) | IC50 (CYP2C19) | inhibition at 20 µM (CYP2D6) | IC50 (CYP3A4) | IC50 (μM) or % Inhibition at 20 μM, CYP450 2B6 (CYP2B6) | inhibition at 20 µM (CYP2C8; human, CYP2C8 enzyme (BD Bioscience), read-out: IC50 (μM) or % Inhibition at 20 μM, CYP450 2C8)
C#Cc1csc(-c2cc(O[C@H]3CC[C@H]4C(=O)N(C)CCCC/C=C\[C@@H]5C[C@@]5(C(=O)NS(=O)(=O)C5(C)CC5)NC(=O)[C@@H]4C3)c3ccc(OC)c(C)c3n2)n1 [Compound 52, (1aR,3aR,5S,7aR,15aS,Z)-5-(2-(4-ethynylthiazol-2-yl)-7-methoxy-8-methylquinolin-4-yloxy)-9-methyl-N-(1-methylcyclopropylsulfonyl)-3,8-dioxo-1a,2,3,3a,4,5,6,7,7a,8,9,10,11,12,13,15a-hexadecahydro-1H-benzo[c]cyclopropa[g][1,6]diazacyclotetradecine-1a-carboxamide] | < 1 µM | < 1 µM | > 75 µM | No Inhibition | 30 to 40% | No Inhibition | 20 to 30% | 9 to 15 µM | 5 to 10% | 15 to 20 µM |  | 
COc1ccc2c(O[C@H]3CC[C@H]4C(=O)N(C)CCCC/C=C\[C@@H]5C[C@@]5(C(=O)NS(=O)(=O)C5(C)CC5)NC(=O)[C@@H]4C3)cc(-c3nc(C(F)(F)F)cs3)nc2c1C [Compound 51] | < 1 µM | < 1 µM | 10 to 75 µM | No Inhibition |  |  | 20 to 30% | 9 to 15 µM | 20 to 30% | 20 to 25 µM | No Inhibition | 10 to 20%
